This is an account of results in paper PMC5890689 (RSC Advances, 2018).

“Also recorded” adds a separate entry of the source. Where two headings read alike, the source gives them in different places.

Test [1] concerns MDA-MB-231 (human breast carcinoma cell line). As to the kind of experiment: SRB assay, MDA-MB-231. The note with it: MDA-MB-231, 72 h, read-out: GI50 MDA-MB-231.
Test [2] relates to KB (nasopharyngeal carcinoma). Nature of the test: SRB assay, KB. The note with it: for GI50: Homo sapiens, 72 h, read-out: GI50 KB.
The test system of test [3] is MCF-7 (Michigan Cancer Foundation-7). As to the kind of experiment: SRB assay, MCF-7. The note with it: Homo sapiens, MCF7, 72 h, read-out: GI50 MCF-7. On the technique in general: Sulforhodamine B stains cellular protein and so reports cell mass.
For test [4], the system named is A549 (lung cancer). As to the kind of experiment: SRB assay, A549. The note with it: Homo sapiens, A549, 72 h, read-out: GI50 A549.
The subject of test [5] is KB-vin (vincristine-resistant KB subline). As to the kind of experiment: SRB assay, KB-vin. Particulars: 3 days, mean ± SD of three.
The test system of test [6] is MDA-MB-231 cells. Nature of the test: Cell cycle analysis by flow cytometry. Format: cell-based, human. Particulars: 24 h, five-fold GI50 (2a 6.0 μM, 2d 8.0 μM, 3b 10.5 μM). In general terms: Flow cytometry measures light scatter and fluorescence of single cells or particles in a stream.
Test [7] deals with CDK2/cyclin A (Homo sapiens, UniProt P24941). As to the kind of experiment: CDK2/cyclin A kinase assay. Format: biochemical.
For test [8], the target named is CDK9/cyclin T1 (Homo sapiens, UniProt P50750). Nature of the test: CDK9/cyclin T1 kinase assay. Format: biochemical.
CDK9/cyclin T1, sequence (P50750 whole entry): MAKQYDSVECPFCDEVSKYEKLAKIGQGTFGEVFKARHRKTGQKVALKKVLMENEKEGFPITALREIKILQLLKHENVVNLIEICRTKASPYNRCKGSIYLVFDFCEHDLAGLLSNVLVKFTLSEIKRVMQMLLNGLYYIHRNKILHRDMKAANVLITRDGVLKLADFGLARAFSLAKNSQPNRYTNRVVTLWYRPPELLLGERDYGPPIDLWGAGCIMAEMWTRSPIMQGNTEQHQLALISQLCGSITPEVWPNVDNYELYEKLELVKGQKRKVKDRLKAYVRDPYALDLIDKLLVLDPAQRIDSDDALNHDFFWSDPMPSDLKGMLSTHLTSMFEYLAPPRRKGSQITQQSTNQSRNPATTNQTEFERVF
CDK9/cyclin T1, sequence (O60563 whole entry partner): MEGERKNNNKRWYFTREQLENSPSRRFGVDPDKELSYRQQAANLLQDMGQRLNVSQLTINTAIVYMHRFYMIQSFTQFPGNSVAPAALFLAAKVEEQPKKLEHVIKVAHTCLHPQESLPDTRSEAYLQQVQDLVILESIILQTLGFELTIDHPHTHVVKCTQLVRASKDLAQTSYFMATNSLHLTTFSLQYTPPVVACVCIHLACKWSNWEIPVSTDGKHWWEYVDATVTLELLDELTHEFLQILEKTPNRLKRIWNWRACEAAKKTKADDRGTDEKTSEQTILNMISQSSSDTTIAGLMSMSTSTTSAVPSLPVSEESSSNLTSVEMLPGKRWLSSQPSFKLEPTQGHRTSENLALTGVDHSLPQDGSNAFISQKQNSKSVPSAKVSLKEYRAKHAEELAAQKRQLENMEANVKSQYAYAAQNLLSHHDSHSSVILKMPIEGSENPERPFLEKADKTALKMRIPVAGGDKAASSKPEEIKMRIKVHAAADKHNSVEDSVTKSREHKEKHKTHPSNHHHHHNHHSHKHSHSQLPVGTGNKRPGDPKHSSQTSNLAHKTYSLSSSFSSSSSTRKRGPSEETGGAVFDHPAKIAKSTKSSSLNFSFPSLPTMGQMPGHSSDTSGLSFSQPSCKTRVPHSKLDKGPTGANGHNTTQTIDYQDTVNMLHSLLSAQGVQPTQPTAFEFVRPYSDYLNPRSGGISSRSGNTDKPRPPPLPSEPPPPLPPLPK
Test [9] concerns A549 (lung cancer). The note with it: read-out: GI50 A549; SRB assay; cited from earlier work.
Test [10] relates to KB-vin (vincristine-resistant KB subline). The note with it: SRB assay; cited from earlier work.
In test [11] the test system is KB (nasopharyngeal carcinoma). Particulars: SRB assay; cited from earlier work.

For `CC(=O)O[C@H]1C(=O)[C@@]2(C)[C@H]([C@H](OC(=O)c3ccccc3)[C@]3(O)C[C@H](OC(=O)[C@H](O)[C@@H](NC(=O)c4ccccc4)c4ccccc4)C(C)=C1C3(C)C)[C@]1(OC(C)=O)CO[C@@H]1C[C@@H]2O` [Paclitaxel, reference compound], the figures for the GI50 in test [1], in [3] and in test [4] were 7.76 ± 0.39 nM, 8.78 ± 0.79 nM and 5.98 ± 0.4 nM, respectively. Also, in [2] (SRB assay, 3 days, mean ± SD of three), the “GI50 KB” value worked out at 4.94 ± 0.21 nM. Also, the “GI50 KB-vin” value in test [5] stood at 1518.36 ± 141.54 nM.
With `COc1ccc(Nc2nc(Nc3cccc(NC(=O)CN(C)C)c3)ncc2F)cc1` [2a, 2-(Dimethylamino)-N-(3-((5-fluoro-4-((4-methoxyphenyl)amino)pyrimidin-2-yl)amino)phenyl)acetamide], the concentration for 50% growth inhibition (GI50) in test [1] came out at 1200 ± 60 nM; in test [2], 570 ± 10 nM; in test [3], 670 ± 60 nM; in test [4] it was 720 ± 10 nM. Also, the “Effect on cell cycle progression” value in test [6] is “induced cell cycle arrest in G2/M phase; also recorded: induced cell cycle arrest at G2/M”. The half-inhibitory concentration (IC50) was determined as 320 ± 280 nM in test [7] and 300 ± 10 nM in test [8].
As for `CN1CC[C@H](c2c(O)cc(O)c3c(=O)cc(-c4ccccc4Cl)oc23)[C@H](O)C1` [FVP, Flavopiridol], the GI50 in test [9] is 140 ± 10 nM. In addition, the “GI50 KB-vin” value in test [10] is 180 ± 10 nM. Moreover, in [11], the “GI50 KB” value is 160 ± 10 nM.
On to `CC(C)(C)NCC(=O)Nc1cccc(Nc2ncc(F)c(Nc3c(F)cccc3F)n2)c1` [3b, 2-(tert-Butylamino)-N-(3-((4-((2,6-difluorophenyl)amino)-5-fluoropyrimidin-2-yl)amino)phenyl)acetamide], for which the 50% growth inhibitory concentration (GI50) in [1] turned out to be 2070 ± 120 nM; in [2], 3270 ± 130 nM; in test [3], 2730 ± 480 nM; in test [4], 1310 ± 180 nM. Also, the “Effect on cell cycle progression” value in [6] is “induced cell cycle arrest in G2/M phase; also recorded: induced cell cycle arrest at G2/M”. The IC50 in test [7] turned out to be 380 ± 60 nM; in test [8], 80 ± 1 nM.
For `CN(C)CC(=O)Nc1cccc(Nc2ncc(F)c(Nc3ccc(N(C)C)cc3)n2)c1` [2d, 2-(Dimethylamino)-N-(3-((4-((4-(dimethylamino)phenyl)amino)-5-fluoropyrimidin-2-yl)amino)phenyl)acetamide], the GI50 is 1640 ± 150 nM in test [1], 3080 ± 160 nM in test [2], 2830 ± 30 nM in test [3] and 1890 ± 190 nM in test [4]. Besides, in test [6], the “Effect on cell cycle progression” value is given as “induced cell cycle arrest in G2/M phase; also recorded: induced cell cycle arrest at G2/M”. Further, the IC50 in [7] was 940 ± 430 nM; in [8], 320 ± 50 nM.
In the case of `Cc1ccc(Nc2ncc(F)c(Nc3c(F)cccc3F)n2)cc1N1CCOCC1` [3o, N ^4-(2,6-difluorophenyl)-5-fluoro-N^2-(4-methyl-3-morpholinophenyl)pyrimidine-2,4-diamine], the 50% growth inhibitory concentration (GI50) in test [1] came out at 7000 ± 60 nM; in [2], 980 ± 50 nM; in test [3], 3750 ± 280 nM; in test [4], 850 ± 10 nM. Besides, the IC50 was found to be 5600 ± 30 nM in [7] and 740 ± 40 nM in [8]. In [8] (ratio of IC50 CDK2/cyclin A to CDK9/cyclin T1), the “subtype selectivity for CDK9 over CDK2” value came to 7.5 fold.

The term GI50 denotes the concentration that inhibits growth by half. What is called IC50 is the concentration that inhibits the measured activity by half. High values mean a need for much substance, low ones inhibition by little substance.
